Among the data in patent US20220009892A1, “SUBSTITUTED PYRIDINE CARBOXYLIC ACIDS, THEIR PREPARATION METHOD AND COMPOSITIONS THEREOF” (INCILIA THERAPEUTICS PRIVATE LIMITED, priority 2018, published 2022) are melting point values, retold here.

Regarding `COC(=O)c1cc(OC)c(OC(=O)c2cccnc2)c(OC)c1`, the melting point – broadly, the temperature of the solid-liquid transition – is 173 to 175 °C.
